Experimental data as given in patent US20070172471A1, “Method for identifying an anti- streptococcal agent and its use for treating streptococcal infections” (Hansa Medical AB, priority 2003, published 2007).

How the values were obtained:
[1] = system: purified PMNs in a mixture of plasma and M1 protein; test: M1 protein-induced PMN aggregation, scanning electron microscopy; assay type: cell-based, human
Experimental: Cell culture, neutrophil isolation, and stimulation of cells. Human PMNs were isolated from fresh heparinized blood of healthy volunteers using NIM, a single step density gradient medium, according to the instructions supplied by the manufacture. PMNs were counted with a hemocytometer, resuspended in MEM medium at 10^7 cells/ml and maintained on rotation in this medium at room temperature until use. All experiments on isolated PMNs were performed in Na-medium and initiated within 1 h of PMN isolation. Neutrophilic proteinase release was induced by PMN activation through antibody cross-linking of CD11 b/CD18 as described previously (Gautam et al., 2000, J. Exp. Med., 191, 1829-1839).
Scanning electron microscopy—Probes were gently applied to Millipore filters (Waters Corporation, Milford). Samples were then sucked down to the filters by a wet filter paper lying underneath. The filters were fixed in 2% (v/v) glutaraldehyde, 0.1 M sodium cacodylate, 0.1 M sucrose, pH 7.2 for 1 h at 4° C., and washed with 0.15 M cacodylate, pH 7.2. The filters were postfixed with 1% (w/v) osmium tetroxide, 0.15 M sodium cacodylate, pH 7.2, for 1 h at 4° C., washed, and stored in cacodylate buffer. […]

[2] = system: M1 protein-induced release of HBP from PMNs in human blood; conditions: M1 protein 1 μg/ml, 30 min 37° C., FIG. 2 and FIG. 5B
Experimental: HBP release. 100 μl human blood were diluted in PBS to a final volume of 1.0 ml and incubated with various PMNs-activating components for 30 min at 37° C. Cells were centrifuged (300×g for 15 min) and the supernatant was analyzed by sandwich ELISA. In order to quantify the total amount of HBP in blood, cells were lysed with 0.02% (v/v) Triton X-100, and pelleted as described above.

[3] = system: PMNs; conditions: Ruf and Patscheke, 1995; cited from earlier work
[4] = system: thrombin-induced coagulation of normal plasma; conditions: Laudano and Doolittle, 1980; cited from earlier work
[5] = system: TNF-stimulated PMNs; conditions: Loike et al., 1991; cited from earlier work
[6] = system: thrombin-induced coagulation of normal plasma; test: Clotting assay (thrombin clotting time); assay type: biochemical; conditions: human plasma, peptides 100 μg/ml, 15 min 37° C., FIG. 5A
Experimental: Clotting assay—The thrombin clotting time (TCT) was measured in a coagulometer (Amelung, Lemgo, Germany). Samples of 200 μl human citrate-treated plasma were incubated with 4 μl of peptide H-2395 or H-2940 (5 mg/ml) for 15 min at 37° C. Clotting was initiated by adding 100 μl of the TCT reagent (Sigma Chemicals, St. Louis, Mo.).

[7] = system: S. pyogenes AP1 bacteria infected mice; assay type: in vivo, mouse; conditions: s.c. AP1 bacteria with 400 μg peptide, i.v. peptide after 30 min, lungs six hours after infection, scanning electron microscopy
[8] = system: mice of the C57BL/6 strain
[9] = M1 protein 15 μg/animal with peptide 400 μg/animal i.v., 30 min

Gly-Pro-Arg-Pro (GPRP)
M1 protein-induced PMN aggregation [1]: inhibited the aggregation
effect on M1 protein-induced release of HBP [2]: blocked the mobilization of HT3P by M1 protein in a dose dependent manner
platelet-induced activation of PMNs [3]: inhibited
clot formation [4]: prevents clot formation
adherence of TNF-stimulated PMNs to fibrinogen-coated surfaces [5]: block adherence
thrombin-induced coagulation / clotting time [6]: completely blocked thrombin-induced coagulation
lung damage in infected mice [7]: much less affected
M1 protein induced lung lesions (hemorrhage and tissue destruction), light microscopy [8, 9]: almost completely prevented
M1 protein-caused lung damage, scanning electron microscopy [8, 9]: contained no precipitates
ratio of lung area containing protein aggregates versus total lung area ([8]; M1 protein plus peptide i.v., six lung sections per animal, electron microscopy): 6±2%
